Key:
H2405 cells = assay: H2405 Cell Proliferation Assay (2); type: cell-based; settings: Homo sapiens, NCI-H2405
Procedure: H2405 Cell Proliferation Assay (2)
H2405 cells (catalog #CRL-5994) are obtained from the American Type Culture Collect (ATTC, Manassas, VA). Briefly, cells were grown in RPMI 1640 supplemented with 5% characterized fetal bovine serum (Invitrogen, Carlsbad, CA) and 1% Penicillin/Streptomycin/L-Glutamine at 37° C., 5% CO2, and 95% humidity. Cells are expanded until reaching 70-95% confluency at which point they are sub-cultured or harvested for assay use. A serial dilution of test compound is dispensed into a 384-well black clear bottom plate in triplicate. Seven hundred fifty cells are added per well in 50 μL complete growth medium in the 384-well plate. Plates are incubated for 67-72 h at 37° C., 5% CO2, and 95% humidity. At the end of the incubation, 10 μL of a 440 μM solution of resazurin (Sigma, St. Louis, MO) in PBS is added to each well of the plate and plates are incubated for an additional 5-6 h at 37° C., 5% CO2, and 95% humidity. Plates are read on a Synergy2 or equivalent reader (Biotek, Winooski VT) using an excitation of 540 nm and an emission of 600 nm. Data is analyzed using Prism software (GraphPad, San Diego, CA) to calculate IC50 values

Miapaca-2 cells = assay: MiaPaca-2 Combination Cell Proliferation Assay (2) with cobimetinib; type: cell-based; settings: MiaPaca-2 cell proliferation, read-out: MiaPaca-2 Combo (2) IC50
Procedure: MiaPaca-2 Combination Cell Proliferation Assay (2)
Miapaca-2 cells (catalog #CRL-1420) are obtained from the American Type Culture Collect (ATCC, Manassas, VA). Briefly, cells were grown in DMEM supplemented with 10% characterized fetal bovine serum (Invitrogen, Carlsbad, CA), 2.5% New Zealand sourced horse serum and 1% Penicillin/Streptomycin/L-Glutamine at 37° C., 5% CO2, and 95% humidity. Cells are expanded until reaching 70-95% confluency at which point they are subcultured or harvested for assay use. Using the Beckman Coulter Echo 650, a threefold, 8-point serial dilution of compound was spotted column wise into a 384 well black, clear bottom, tissue culture treated plate. Likewise, a threefold, 8-point serial dilution of cobimetinib was spotted row wise into the 384 well black, clear bottom plate containing compound. DMSO concentration was constant across all wells at 0.4%. Seven hundred fifty cells are added per well in 50 μL complete growth medium in each 384-well plate. Plates are incubated for 67-72 hours at 37° C., 5% CO2, and 95% humidity. At the end of the incubation, 10 μL of a 440 μM solution of resazurin (Sigma, St. Louis, MO) in PBS is added to each well of the plate and plates are incubated for an additional 4-6 hours at 37° C., 5% CO2, and 95% humidity. Plates are read on a Synergy2 or equivalent reader (Biotek, Winooski VT) using an excitation of 540 nm and an emission of 600 nm. Drug synergy was assessed via BLISS analysis in the Combenefit software (Cancer Research UK Cambridge Institute, Cambridge, UK). Data is analyzed using Prism software (Graphpad, San Diego, CA) to calculate IC50 values. Shifts in test compound IC50 values are reported from top-constrained combination therapy curves.

Row | SMILES | IC50 (H2405 cells) | IC50 (Miapaca-2 cells)
1 | CNC(=O)c1cc(-c2cc(-c3cc(NC(=O)c4ccnc(C5(F)CC5)c4)ccc3C)ccn2)ccn1 [Example 487] | ≤ 100 nM | 100 to 500 nM
2 | Cc1ccc(NC(=O)c2ccnc(C(C)(C)F)c2)cc1-c1cc(-c2ccnc(C(N)=O)c2)ncn1 [Example 488] | 100 to 500 nM | 
3 | Cc1ccc(NC(=O)c2ccnc(C(C)(C)F)c2)cc1-c1cc(-c2ccnc(C(N)=O)c2)ncc1F [Example 490] | 100 to 500 nM | 
4 | CNC(=O)c1cc(-c2cc(-c3cc(NC(=O)c4ccnc(C(C)(C)F)n4)ccc3C)ccn2)ccn1 [Example 494] | 1000 to 10000 nM | 
5 | CNC(=O)c1cc(-c2cc(-c3cc(NC(=O)c4cnnc(C(C)(C)F)c4)ccc3C)ccn2)ccn1 [Example 495] | 100 to 500 nM | 
6 | CNC(=O)c1cc(-c2cc(-c3cc(NC(=O)c4ccnc(C5(F)CC5)c4)ccc3C)cc(C)n2)ccn1 [Example 496] | 100 to 500 nM | 
7 | CNC(=O)c1cc(-c2cc(-c3cc(NC(=O)c4ccnc(C(C)(C)F)c4)c(F)cc3C)ccn2)ccn1 [Example 497] | 100 to 500 nM | 
8 | CNC(=O)c1cc(-c2cc(-c3cc(NC(=O)c4ccnc(C(C)(C)F)c4)ncc3C)ccn2)ccn1 [Example 499] | 100 to 500 nM | 
9 | Cc1ccc(NC(=O)c2ccc(C(F)(F)F)cc2)cc1-c1ccnc(-c2ccnc(NC(=O)C3CC3)c2)c1 [Example 501] | 100 to 500 nM | 
10 | Cc1ccc(NC(=O)c2cc(C(F)(F)F)ccc2F)cc1-c1ccnc(-c2ccnc(NC(=O)C3CC3)c2)c1 [Example 503] | 100 to 500 nM | 

Second part, the molecule after the results:

Row | IC50 (H2405 cells) | IC50 (Miapaca-2 cells) | SMILES
11 | 100 to 500 nM |  | CNC(=O)c1cc(-c2cc(-c3cc(NC(=O)c4ccnc(C(C)(C)F)c4)ccc3Cl)ccn2)ccn1 [Example 485]
12 | 500 to 1000 nM | 1000 to 10000 nM | Cc1ccc(NC(=O)c2ccnc(C(C)(C)F)c2)cc1-c1cnnc(-c2ccnc(C(N)=O)c2)c1 [Example 486]
13 | ≤ 100 nM | 100 to 500 nM | [2H]C([2H])([2H])NC(=O)c1cc(-c2cc(-c3cc(NC(=O)c4ccnc(C(C)(C)F)c4)ccc3C)ccn2)ccn1 [Example 489]
14 | 100 to 500 nM |  | CC(C)(F)c1cc(C(=O)Nc2ccc(F)c(-c3ccnc(-c4ccnc(C(N)=O)c4)c3)c2)ccn1 [Example 491]
15 | 100 to 500 nM |  | CNC(=O)c1cc(-c2cc(-c3cc(NC(=O)c4cnnc(C(C)(F)F)c4)ccc3C)ccn2)ccn1 [Example 492]
16 | 100 to 500 nM | 100 to 500 nM | [2H]C([2H])([2H])NC(=O)c1cc(-c2cc(-c3cc(NC(=O)c4ccnc(C(C)(C)F)c4)ccc3C)cc(C)n2)ccn1 [Example 493]
17 | 100 to 500 nM |  | [2H]C([2H])([2H])NC(=O)c1cc(-c2cc(-c3cc(NC(=O)c4ccnc(C5(F)CC5)c4)ccc3C)cc(C)n2)ccn1 [Example 498]
18 | 1000 to 10000 nM |  | Cc1ccc(NC(=O)c2cn(C)nc2C(F)(F)F)cc1-c1cncc(-c2ccnc(NC(=O)C3CC3)c2)c1 [Example 500]
19 | ≤ 100 nM |  | Cc1ccc(NC(=O)c2cccc(C(F)(F)F)c2)cc1-c1ccnc(-c2ccnc(NC(=O)C3CC3)c2)c1 [Example 502]

— patent publication US12319655B2, “RAF kinase inhibitors and methods of use thereof” (Deciphera Pharmaceuticals, LLC, priority 2021, dated 2025)
